Where two headings read alike, the source gives them in different places.
Columns and labels:
full-length human FXR = target: T1, full-length human FXR (Homo sapiens, UniProt Q96RI1); assay: CAT reporter assay in CV-1 cells transfected with FXR, human RXRα and FXREhsp27-tk-CAT; conditions: 100 μM bile acid or farnesol, 10 μM steroid or TTNPB
T1 sequence (Q96RI1 1-472 isoform Q96RI1-2): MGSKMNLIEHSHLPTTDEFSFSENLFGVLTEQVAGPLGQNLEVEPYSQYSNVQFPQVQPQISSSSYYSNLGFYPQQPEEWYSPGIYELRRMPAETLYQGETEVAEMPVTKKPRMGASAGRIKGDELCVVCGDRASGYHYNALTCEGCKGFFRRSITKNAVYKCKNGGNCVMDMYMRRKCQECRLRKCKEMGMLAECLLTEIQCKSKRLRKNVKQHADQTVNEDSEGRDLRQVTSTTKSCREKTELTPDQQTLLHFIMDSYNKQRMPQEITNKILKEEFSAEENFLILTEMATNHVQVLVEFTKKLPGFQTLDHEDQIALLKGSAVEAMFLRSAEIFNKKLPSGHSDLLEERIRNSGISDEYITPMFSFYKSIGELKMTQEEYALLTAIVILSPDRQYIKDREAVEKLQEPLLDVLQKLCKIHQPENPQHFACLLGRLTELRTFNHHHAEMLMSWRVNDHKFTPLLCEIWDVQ
T1 sequence (P19793 1-462 partner): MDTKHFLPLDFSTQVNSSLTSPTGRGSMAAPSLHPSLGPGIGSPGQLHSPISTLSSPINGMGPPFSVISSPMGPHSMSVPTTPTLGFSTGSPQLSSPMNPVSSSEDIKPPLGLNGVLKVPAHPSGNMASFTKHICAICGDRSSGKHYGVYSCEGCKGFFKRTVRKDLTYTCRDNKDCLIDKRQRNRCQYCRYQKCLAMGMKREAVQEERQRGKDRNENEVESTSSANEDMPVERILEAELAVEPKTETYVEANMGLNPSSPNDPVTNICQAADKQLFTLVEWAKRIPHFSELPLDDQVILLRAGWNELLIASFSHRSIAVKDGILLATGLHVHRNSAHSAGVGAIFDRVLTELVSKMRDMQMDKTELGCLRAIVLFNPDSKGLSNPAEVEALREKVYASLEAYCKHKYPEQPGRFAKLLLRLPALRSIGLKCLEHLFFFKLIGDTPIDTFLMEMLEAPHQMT
Excerpt: CV-1 cells were transiently transfected with an expression plasmid encoding the human FXR and a reporter construct containing the hsp27-EcRE, a response element that is known to be activated by the FXR/RXR heterodimer.

human FXR LBD [1] = target: T2, human FXR LBD (Homo sapiens, UniProt Q96RI1); assay: FRET ligand-sensing assay: SRC1 peptide binding to FXR LBD; conditions: 100 μM compound (FIG. 3A/4a)
T2 sequence (Q96RI1 222-472 isoform Q96RI1-2): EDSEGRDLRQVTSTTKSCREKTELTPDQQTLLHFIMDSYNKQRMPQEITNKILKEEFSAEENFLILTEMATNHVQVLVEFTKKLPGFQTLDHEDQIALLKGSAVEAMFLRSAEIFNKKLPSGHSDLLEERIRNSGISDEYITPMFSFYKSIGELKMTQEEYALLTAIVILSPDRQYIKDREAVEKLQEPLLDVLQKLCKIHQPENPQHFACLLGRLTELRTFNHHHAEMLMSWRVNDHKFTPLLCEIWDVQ

human FXR LBD [2] = target: T2, human FXR LBD; assay: FRET ligand-sensing assay in the presence of 50 μM CDCA (competition with CDCA for FXR binding)
Excerpt: Data are expressed as the means ± SD derived from three independent experiments.
Data were collected using a Wallac Victor™ fluorescence reader in a time-resolved mode.

## C[C@H](CCC(=O)O)[C@H]1CC[C@H]2[C@@H]3[C@H](O)[C@@H](O)[C@@H]4C[C@H](O)CC[C@]4(C)[C@H]3CC[C@]12C [α-muricholic acid]
full-length human FXR
  activation of full-length human FXR: no activation

## C[C@H](CCC(=O)O)[C@H]1CC[C@H]2[C@@H]3[C@H](O)C[C@@H]4C[C@H](O)CC[C@]4(C)[C@H]3C[C@H](O)[C@]12C [CA, cholic acid]
Human FXR LBD [1]
  effect on interaction between FXR LBD and SRC1 peptide: no effect
full-length human FXR
  activation of full-length human FXR: inactive

## C[C@H](CCC(=O)O)[C@H]1CC[C@H]2[C@@H]3CC[C@@H]4C[C@H](O)CC[C@]4(C)[C@H]3C[C@H](O)[C@]12C [DCA, deoxycholic acid]
Human FXR LBD [2]
  IC50: 100 µM

## C[C@H](CCC(=O)O)[C@H]1CC[C@H]2[C@@H]3[C@@H](O)[C@@H](O)[C@@H]4C[C@H](O)CC[C@]4(C)[C@H]3CC[C@]12C [β-muricholic acid]
full-length human FXR
  activation of full-length human FXR: no activation

## muricholic acid [MCA]
Human FXR LBD [2]; read-out: half-maximal inhibitor concentration IC50 in the cell-free ligand sensing assay, in the presence of 50 μM CDCA
  IC50: > 1000 µM

## C/C(=C\c1ccc(C(=O)O)cc1)c1ccc2c(c1)C(C)(C)CCC2(C)C [TTNPB]
Human FXR LBD [2]; in the presence of 50 μM CDCA
  effect on CDCA-FXR-SRC1 complex (fluorescence signal): disrupted the CDCA-FXR-SRC1 complex in a dose-dependent fashion
Human FXR LBD [1]
  effect on interaction between FXR LBD and SRC1 peptide: did not promote interactions
full-length human FXR
  activation of full-length human FXR: activate FXR

Reference: patent publication US6639078B1, “Assays for ligands for nuclear receptors” (SmithKline Beecham Corporation, priority 1998, dated 2003)
